# Laboratory results reported in patent US9023862B2, “Medicament for the treatment of endometriosis” (Ferring International Center S.A., priority 2007, dated 2015).
# What was measured:
# [1] = Toxicity in the nude mouse endometriosis study; details: 0.05 and 0.1 mg/kg/day oral, two weeks
# Excerpt: (§4) Three weeks after implantation the animals were split into three groups. […] Two weeks after treatment the animals were sacrificed and the endometriotic lesions sampled and analysed as set out below.
# Wnt-1 = assay: TaqMan Real-time PCR gene expression in implants: Wnt-1; assay type: in vivo, mice; details: for Wnt-1 relative expression: vehicle 1.0 ± 0.1, Mean ± SD
# Excerpt: (§1) TaqMan Real-time PCR and 2^−ΔΔCt methods were used to analyze the gene expression profiles of three different markers that promote angiogenesis (VEGF, VEGFR-2, Notch-4); Angiopoietin-1 (Ang-1), an antiangiogenesis marker which promotes the enlargement of existing vessels and resistance to leakage; and Wnt-1.
# (§2) TaqMan Real-time PCR and 2^−ΔΔCt methods were used to analyze the gene expression profiles of three different markers that promote angiogenesis (VEGF, VEGFR-2, Notch-4); Angiopoietin-1 (Ang-1), an antiangiogenesis marker which promotes the enlargement of existing vessels and resistance to leakage; and Wnt-1. The housekeeping 18S rRNA was used to normalize the target gene Ct values. The Ct value in each group was expressed relative to the control group Ct values (calibrator), to calculate the relative expression by the 2^−ΔΔCt method. cDNA obtained from sarcoma 180 tumor cells (S-180) and human umbilical vein endothelial cells (HUVEC) was used as negative and positive control, respectively, for the VEGF and VEGFR-2 gene expression. Spleen was used as positive control for Ang-1 and Wnt-1, and lung was employed as a Notch-4 positive control.
# VEGFR-2 (KDR) = assay: TaqMan Real-time PCR gene expression in implants: VEGFR-2 (KDR); assay type: in vivo, mice; details: for VEGFR-2 (KDR) relative expression: vehicle 1.0 ± 0.1, Mean ± SD
# Excerpt: as §1, §2
# endometriotic lesions [2] = assay: Ki-67 immunocytochemistry, proliferative activity of the implants; assay type: in vivo, mice; details: both low and high dose groups vs control; P<0.001
# Procedure: (§3) Morphometric study was performed to measure the implants area and cellular density. Immunocytochemistry with Ki-67 (monoclonal IgG1 DAKO Corp., Denmark) antibody was performed in order to evaluate the proliferative activity of the implants. The histopathological and subcellular ultrastructural changes were detected using an optical microscope (OM), transmission electronic microscope (TEM) and histochemical staining. Optical microscopy (OM), transmission electron microscopy (TEM) and morphometry were performed to ascertain the presence of endometrial glands and stroma and study subcellular ultrastructural changes, area of the implants and cellular density.
# An immunocyto chemistry study using the Ki-67 antibody (i.e. analysing the degree of cellular proliferation employing antibodies against Ki-67) was used to evaluate the proliferative activity of the implants using methods known in the art.
# endometriotic lesions [3] = assay: Nude mouse endometriosis model: active lesions, histology (OM, TEM) and morphometry; assay type: in vivo, mice; details: for percentage of active lesions: two weeks, control 89.6±5.7%, p=0.0169, mean ± SEM
# Procedure: An experimental animal endometriosis model was developed in nude mice by inserting human endometrium fragments. Female mice (Hsd: Athimic Nude-nu, Harlan Ibérica S. L, Barcelona, Spain) were individually housed in autoclaved cages and bedding, in laminar flow filtered hoods. The animal room was maintained at 26 C with a 12-h light, 12-h dark cycle, and mice were fed ad libitum with autoclaved laboratory rodent chow and acidified water. All handling was performed in laminar flow filtered hoods. A mixture of ketamine/medetomidine (75 μg/g ketamine and 1 μg/g medetomidine) (Ketolar®, Parke-Davis, España; Domtor®, Pfizer, Spain) i.p injected, was used to anesthetize mice before invasive procedures and atipamezole (Antisedan®, SmithKline Beecham, Spain) 1 μg/g i.p injected, to reverse the anesthesia effects, was used after invasive procedures, using sterile instruments.
# At the age of 5 weeks, sterile 60-d release capsules containing 18 mg 17β-estradiol (Innovative Research of America, Sarasota, Fla.) were placed sc in the neck of each animal. According to the manufacturer's information, capsules provide continuous release of hormone at serum concentrations of 150-250 pmol/liter, in the range of physiological levels in mice during the estrous cycle. This stable physiological level of estrogen promotes the growth of transplanted human endometrium and avoids intermouse differences related to various stages of the estrous cycle.
# Four days after insertion of the estrogen pellet, an entrance was made to the peritoneal cavity in the midline in the lower abdomen to insert fresh human endometrium from ovum pick-up donors. These fragments were stuck by glue (Vetabond®, 3M Animal Care products, USA) to the peritoneum. This protocol allowed to mimic the pathologic situation of retrograde menstruation that occur in women with endometriosis.
# as §3
# [4] = mouse, in vivo
# Excerpt: as §4
# VEGF = assay: TaqMan Real-time PCR gene expression in implants: VEGF; assay type: in vivo, mice; details: for VEGF relative expression: vehicle 1.2 ± 0.3, Mean ± SD
# Excerpt: as §1, §2
# Notch-4 = assay: TaqMan Real-time PCR gene expression in implants: Notch-4; assay type: in vivo, mice; details: for Notch-4 relative expression: vehicle 1.0 ± 0.1, Mean ± SD
# Excerpt: as §1, §2
# Ang-1 = assay: TaqMan Real-time PCR gene expression in implants: Ang-1; assay type: in vivo, mice; details: for Ang-1 relative expression: vehicle 1.1 ± 0.2, Mean ± SD
# Excerpt: as §1, §2
# [5] = tested on: blood vessels in endometriotic lesions; assay: Immunofluorescence (vWF/α-SMA) of new and mature blood vessels in the implants; assay type: in vivo, mice; details: low and high dose groups vs control
# Procedure: The anti-angiogenic effects of the dopamine agonists were assessed by immunofluorescence, the antibodies used in confocal microscopy raised against Von Willebrand factor (vWF monoclonal IgG1, DAKO Corp., Denmark) present in endothelial cells and vascular smooth muscle cells (monoclonal IgG2 α-SMA-FITC conjugated de Sigma, St Louis, USA). Blood vessel which are not of new formation, are rounded by a smooth muscle layer which confers maturity to them. Identification of endothelial cells was made employing vWF, whereas mature vessels were identified by α-SMA positive staining. Thus, vWF+/αSMA− blood vessels were considered new or immature, while vWF+/αSMA+ vessels were classified as old or mature blood vessels.
# The angiogenic status of the lesions was initially analyzed using immunofluorescence employing antibodies to identify new (vWF+/αSMA−) and old vessels (vWF+/αSMA+) and confocal microscopy (Leica Confocal Software). Immunofluorescence employing antibodies raised against the Von Willebrand factor (vWF) present in endothelial cells and vascular smooth muscle cells (α-SMA) can be used to test the antiangiogenic action Cb2. Blood vessel which are not of new formation, are rounded by a smooth muscle layer which confers maturity to them. Identification of endothelial cells was made employing vWF, whereas mature vessels were identified by α-SMA positive staining. […]
# [6] = low and high dose groups, p <0.05
structure (smiles),measurement,setting,value
C=CCN1C[C@H](C(=O)N(CCCN(C)C)C(=O)NCC)C[C@@H]2c3cccc4[nH]cc(c34)C[C@H]21 [cabergoline],mortality following administration,[1],No mice in the study died
same,Wnt-1 relative expression,Wnt-1; HIGH DOSE (0.1 mg/kg/day),3.3 ± 0.6
same,Wnt-1 relative expression,Wnt-1; LOW DOSE (0.05 mg/kg/day),3.4 ± 0.2
same,Expression of Wnt-1 in treated groups vs vehicle,"Wnt-1; low and high dose groups, p =0.07",Upregulated
same,VEGFR-2 (KDR) relative expression,VEGFR-2 (KDR); HIGH DOSE (0.1 mg/kg/day),0.3 ± 0.1
same,VEGFR-2 (KDR) relative expression,VEGFR-2 (KDR); LOW DOSE (0.05 mg/kg/day),0.4 ± 0.1
same,Expression of VEGFR-2 (KDR) in treated groups vs vehicle,VEGFR-2 (KDR); [6],Downregulated
same,"proliferation (Proliferation Index, Ki-67 positive cells)",endometriotic lesions [2],decrease in proliferation
same,ratio glands/stroma (morphometry),"endometriotic lesions [3]; both low (0.05 mg/kg/day) and high (0.1 mg/kg/day) doses vs controls, p<0.05",more stroma and less glands than the controls
same,cellular density (morphometry),"endometriotic lesions [3]; control, low and high dose groups",no statistical difference among groups
same,histology of treated lesions (OM and TEM),endometriotic lesions [3]; high and low dose,"a lax stroma, with lost cellularity and organization"
same,percentage of active lesions,endometriotic lesions [3]; high dose 0.1 mg/kg/day oral,60.4±8.4%
same,percentage of active lesions,endometriotic lesions [3]; low dose 0.05 mg/kg/day oral,58.6±9.7%
same,body weight of the mice in the different treatment groups,[4],not significantly different
same,VEGF relative expression,VEGF; HIGH DOSE (0.1 mg/kg/day),0.4 ± 0.1
same,VEGF relative expression,VEGF; LOW DOSE (0.05 mg/kg/day),0.5 ± 0.2
same,VEGF expression in endometrial implants,"VEGF; increasing doses (control, 0.05, 0.1 mg/kg/day), FIG. 6a",trend towards decreased VEGF expression
same,Expression of VEGF in treated groups vs vehicle,VEGF; [6],Downregulated
same,Notch-4 relative expression,Notch-4; HIGH DOSE (0.1 mg/kg/day),0.4 ± 0.1
same,Notch-4 relative expression,Notch-4; LOW DOSE (0.05 mg/kg/day),0.5 ± 0.1
same,Expression of Notch-4 in treated groups vs vehicle,Notch-4; [6],Downregulated
same,Ang-1 relative expression,Ang-1; HIGH DOSE (0.1 mg/kg/day),3.7 ± 0.6
same,Ang-1 relative expression,Ang-1; LOW DOSE (0.05 mg/kg/day),3.2 ± 0.6
same,Expression of Ang-1 in treated groups vs vehicle,Ang-1; [6],Upregulated
same,new blood vessel formation (angiogenesis),[5],significantly reduced new blood vessel formation
